In patent publication US20220169632A1, “METHODS AND MATERIALS FOR INCREASING OR MAINTAINING NICOTINAMIDE MONONUCLEOTIDE ADENYLYL TRANSFERASE-2 (NMNAT2) POLYPEPTIDE LEVELS” (University of Pittsburgh - Of the Commonwealth System of …, priority 2019, published 2022):

Test system: NMNAT2
Experiment: NMNAT2-Hibit nano-luciferase activity in transfected U87MG cells, 5 μM, 48 hours
Assay type: cell-based
Details: NMNAT2-Hibit luciferase plasmid, 48 hours (Table D)
Description: Selected compounds were tested in vitro. Briefly, U87MG cells were transfected with NMNAT2-Hibit luciferase plasmid. Cells were treated with test compound at 5 μM for 48 hours. Cells were then collected and assayed for nano-luciferase activity.

| SMILES | D: compound efficacy for NMNAT2 activation; increase in NMNAT2 luciferase activity |
| --- | --- |
| Cc1cc2c(=O)c(C(=O)c3ccncc3)cn(CC(=O)NCc3ccccc3)c2cc1C [BC181254] | ++ (“++” >20% and <100% increase in NMNAT2 luciferase activity.) |
| CC(=O)c1cn(CC(=O)NCc2ccncc2)c2ccccc12 [BC181266] | + (“+” <20% increase in NMNAT2 luciferase activity.) |
| COCCNC(=O)Cn1cc(C(=O)c2ccccc2)c2ccccc21 [BC181214] | + (“+” <20% increase in NMNAT2 luciferase activity.) |
| CC1CCCC(C)N1C(=O)Cn1cc(C(=O)c2ccccc2)c2ccccc21 (stereo not shown) [BC181219] | ++ (“++” >20% and <100% increase in NMNAT2 luciferase activity.) |
| O=C(Cn1cc(C(=O)C2CCCCC2)c2ccccc21)NCc1ccccc1 [BC181221] | + (“+” <20% increase in NMNAT2 luciferase activity.) |
| Cc1ccccc1Cn1cc(CCC(=O)NCc2ccco2)c2ccccc21 [BC181237] | ++ (“++” >20% and <100% increase in NMNAT2 luciferase activity.) |
| Cc1ccc2c(c1)c(=O)c(C(=O)c1ccncc1)cn2CC(=O)NCc1ccccc1 [BC181249] | + (“+” <20% increase in NMNAT2 luciferase activity.) |
| Cc1ccc2c(c1)c(=O)c(C(=O)c1ccncc1)cn2CC(=O)NCc1ccc(Cl)cc1 [BC181251] | ++ (“++” >20% and <100% increase in NMNAT2 luciferase activity.) |

Test system: NMNAT2
Experiment: NMNAT2-Hibit nano-luciferase activity in transfected U87MG cells, 25 μM, 24 hours
Assay type: cell-based
Details: NMNAT2-Hibit luc plasmid, 24 hours (Table B)
Description: Selected compounds were tested in vitro. Briefly, U87MG cells were transfected with NMNAT2-Hibit luc plasmid. Cells were treated with a test compound at 25 μM for 24 hours. Cells were then collected and assayed for nano-luciferase activity.

| SMILES | B: compound efficacy (IC50) for NMNAT2 activation; increase in NMNAT2 luciferase activity |
| --- | --- |
| Cc1ccc2onc(CNC(=O)NCc3cccc(Cl)c3)c2c1 [Compound 181077] | ++ (“++” >20% and <100% increase in NMNAT2 luciferase activity.) |
| O=C(NCc1noc2ccccc12)Nc1ccc(Cl)cc1 [Compound 181028] | + (“+” <20% increase in NMNAT2 luciferase activity.) |
| Cc1ccc2onc(CNC(=O)Nc3ccccc3Cl)c2c1 [Compound 181079] | + (“+” <20% increase in NMNAT2 luciferase activity.) |
| COc1ccc(NC(=O)NCc2noc3ccc(C)cc23)cc1 [Compound 181078] | + (“+” <20% increase in NMNAT2 luciferase activity.) |
| Cc1cccc(N(C)C(=O)NCc2noc3ccc(C)cc23)c1 [Compound 181058] | + (“+” <20% increase in NMNAT2 luciferase activity.) |
| CN(C(=O)NCc1noc2ccccc12)c1ccc(F)cc1 [Compound 181032] | + (“+” <20% increase in NMNAT2 luciferase activity.) |
| COc1ccccc1CNC(=O)NCc1noc2ccccc12 [Compound 181008] | + (“+” <20% increase in NMNAT2 luciferase activity.) |
| Cc1ccc2onc(CNC(=O)Nc3ccc(F)cc3F)c2c1 [Compound 181042] | + (“+” <20% increase in NMNAT2 luciferase activity.) |
| Cc1ccc2onc(CNC(=O)NC3CC3)c2c1 [Compound 181063] | + (“+” <20% increase in NMNAT2 luciferase activity.) |
| CC(=O)c1cccc(NC(=O)NCc2noc3ccccc23)c1 [Compound 181031] | + (“+” <20% increase in NMNAT2 luciferase activity.) |
| CCc1ccc(CNC(=O)NCc2noc3ccc(C)cc23)cc1 [Compound 181068] | ++ (“++” >20% and <100% increase in NMNAT2 luciferase activity.) |
| Cc1ccc2onc(CNC(=O)NCc3ccccn3)c2c1 [Compound 181050] | + (“+” <20% increase in NMNAT2 luciferase activity.) |
| Cc1cc(Br)ccc1NC(=O)NCc1noc2ccccc12 [Compound 181007] | + (“+” <20% increase in NMNAT2 luciferase activity.) |
| Cc1ccc2onc(CNC(=O)N(C)c3cccc(Cl)c3)c2c1 [Compound 181055] | + (“+” <20% increase in NMNAT2 luciferase activity.) |
| Cc1ccc2onc(CNC(=O)NC3CCCC3)c2c1 [Compound 181071] | + (“+” <20% increase in NMNAT2 luciferase activity.) |
| Cc1ccc2onc(CNC(=O)NCCc3ccc(Cl)cc3)c2c1 [Compound 181059] | + (“+” <20% increase in NMNAT2 luciferase activity.) |
| Cc1ccc2onc(CNC(=O)NC3CCCCCC3)c2c1 [Compound 181049] | + (“+” <20% increase in NMNAT2 luciferase activity.) |
| CCCN(C(=O)NCc1noc2ccc(C)cc12)c1ccc(Cl)c(Cl)c1 [Compound 181061] | + (“+” <20% increase in NMNAT2 luciferase activity.) |
| Cc1ccc(CCNC(=O)NCc2noc3ccc(C)cc23)cc1 [Compound 181083] | ++ (“++” >20% and <100% increase in NMNAT2 luciferase activity.) |
| O=C(NCc1cccc(Cl)c1)NCc1noc2ccccc12 [Compound 181025] | + (“+” <20% increase in NMNAT2 luciferase activity.) |
| Cc1ccc2onc(CNC(=O)NCCc3c[nH]c4ccccc34)c2c1 [Compound 181086] | ++ (“++” >20% and <100% increase in NMNAT2 luciferase activity.) |
| Cc1ccc2onc(CNC(=O)Nc3ccc(C(C)C)cc3)c2c1 [Compound 181053] | + (“+” <20% increase in NMNAT2 luciferase activity.) |
| Cc1ccc(CNC(=O)NCc2noc3ccc(C)cc23)cc1 [Compound 181069] | ++ (“++” >20% and <100% increase in NMNAT2 luciferase activity.) |
| O=C(NCc1ccc(Cl)cc1)NCc1noc2ccccc12 [Compound 181029] | ++ (“++” >20% and <100% increase in NMNAT2 luciferase activity.) |
| Cc1ccc2onc(CNC(=O)NCc3ccccc3Cl)c2c1 [Compound 181081] | + (“+” <20% increase in NMNAT2 luciferase activity.) |
| Cc1cccc(CCNC(=O)NCc2noc3ccccc23)c1 [Compound 181023] | + (“+” <20% increase in NMNAT2 luciferase activity.) |

Same assay, conditions: NMNAT2-Hibit luc plasmid, 24 hours (Table C)

| SMILES | C: Compound efficacy for NMNAT2 activation; increase in NMNAT2 luciferase activity |
| --- | --- |
| O=C(Cn1cc(C(=O)C2CCCCC2)c2ccccc21)NCc1ccco1 [Compound 181107] | +++ (“+++” >100% increase in NMNAT2 luciferase activity.) |
| Cc1ccc(CNC(=O)Cn2c(-c3cccs3)cc3cc(F)ccc32)o1 [Compound 181119] | + (“+” <20% increase in NMNAT2 luciferase activity.) |
| Cn1cc(C(CC(=O)NCc2ccco2)c2cccc(F)c2)c2ccccc21 (stereo not shown) [Compound 181143] | + (“+” <20% increase in NMNAT2 luciferase activity.) |
| COc1ccc2c(ccn2CCNC(=O)c2ccco2)c1 [Compound 181157] | + (“+” <20% increase in NMNAT2 luciferase activity.) |
| Cc1cc2ncn(CC(=O)NCc3ccco3)c2cc1C [Compound 181159] | + (“+” <20% increase in NMNAT2 luciferase activity.) |
| Cc1cc(C)n(CC(=O)NCc2ccco2)c(=O)c1C#N [Compound 181128] | + (“+” <20% increase in NMNAT2 luciferase activity.) |
| Cc1cc(C)n(CC(=O)NCc2ccc(F)cc2)c(=O)c1C#N [Compound 181123] | + (“+” <20% increase in NMNAT2 luciferase activity.) |
| Cc1cc(C)n(CC(=O)NCCC(C)C)c(=O)c1C#N [Compound 181131] | + (“+” <20% increase in NMNAT2 luciferase activity.) |
| O=C(Cn1cc(C(=O)C2CC2)c2ccccc21)NCc1ccco1 [Compound 181105] | + (“+” <20% increase in NMNAT2 luciferase activity.) |
| CC(=O)c1c(C)n(CC(=O)NCc2ccco2)c2ccccc12 [Compound 181109] | + (“+” <20% increase in NMNAT2 luciferase activity.) |
| COc1ccccc1CNC(=O)Cn1c(C)cc(C)c(C#N)c1=O [Compound 181126] | + (“+” <20% increase in NMNAT2 luciferase activity.) |
| COc1ccc(CNC(=O)Cn2c(C)cc(C)c(C#N)c2=O)cc1 [Compound 181124] | + (“+” <20% increase in NMNAT2 luciferase activity.) |
| Cc1cc(C)n(CC(=O)Nc2ccccc2C(=O)NCc2ccco2)c(=O)c1C#N [Compound 181135] | + (“+” <20% increase in NMNAT2 luciferase activity.) |
| COc1ccccc1CNC(=O)Cn1ccc2ccc(F)cc21 [Compound 181151] | + (“+” <20% increase in NMNAT2 luciferase activity.) |
| Cc1ccc(Cn2cc(CCCC(=O)NCc3ccco3)c3ccccc32)cc1 [Compound 181114] | +++ (“+++” >100% increase in NMNAT2 luciferase activity.) |
| O=C(Cn1c(-c2cccs2)cc2cc(F)ccc21)NCc1ccco1 [Compound 181118] | + (“+” <20% increase in NMNAT2 luciferase activity.) |
| O=C(NCCn1ccc2c(Cl)cccc21)c1ccco1 [Compound 181155] | + (“+” <20% increase in NMNAT2 luciferase activity.) |
| CSc1ccc(CNC(=O)Cn2c(C)cc(C)c(C#N)c2=O)cc1 [Compound 181132] | + (“+” <20% increase in NMNAT2 luciferase activity.) |
